Publication PMC12501029, “Discovery of a CNS active GSK3 degrader using orthogonally reactive linker screening” (Nature Communications, 2025)

Legend:
GSK3 = assay: Mode of action rescue studies in HEK293 cells (pre-treatment with MG132, MLN4924 or GSK3 inhibitor 29); format: cell-based, human; conditions: 2 h pre-treatment, 1 µM each inhibitor
Experimental: HEK293, HAP1, HAP1 CRBN KO and SH-SY5Y cells were plated in either 6 cm plates or 6-well plates at varying densities (0.5–0.7 × 10^6 cells per plate or wells), and MEF cells were plated in 10 cm plates (1–1.2 × 10^6 cells per plate) depending on experimental set up in respective culturing condition as described above. Stock solutions of compounds were prepared as 10 mM in DMSO (Sigma–Aldrich). Working dilutions were made up fresh in DMSO and culturing media or differentiation media was refreshed prior to any compound treatments. For mode of action studies, cells were pre-treated with inhibitors for 2 h: 1 µM MG132 (Merck, 474790-5 mg), 1 µM MLN4924 (Merck, 5054770001) or 1 µM GSK3 inhibitor (compound 29), before treating with PROTACs for 2, 4 or 24 h as indicated in figure legends. Cells were washed twice with ice-cold PBS (Gibco), harvested in PBS and pelleted, cells were resuspended in RIPA buffer supplemented with complete EDTA-free protease inhibitor cocktail (Roche,11873580001, 1/10 mL) and phosSTOP (Roche, 04906845001, 1 tablet/10 mL) for 20 min lysis on ice then cleared via centrifugation at 16,000 × g, 4 °C for 20 min. […] Following clearance of lysates, protein concentrations were determined by the BCA assay (Fisher Scientific, 23225) or Bradford assay (Bio-rad). […]

[1] = Intrinsic clearance (Cli), mouse liver microsomes; format: in vitro ADME; conditions: 0.5 µM, scaling factor 48 mg microsomal protein per g liver
Experimental: Test compound (0.5 µM) was incubated with female CD1 mouse, male rat Han Wistar and pooled human liver microsomes (Xenotech^TM; 0.5 mg/mL 50 mM potassium phosphate buffer, pH7.4) and the reaction started with addition of excess NADPH (8 mg/mL 50 mM potassium phosphate buffer, pH7.4). Immediately, at time zero, then at 3, 6, 9, 15 and 30 min an aliquot (50 µL) of the incubation mixture was removed and mixed with acetonitrile (100 uL) to stop the reaction. An internal standard was added to all samples, the samples centrifuged to sediment precipitated protein and the plates then sealed prior to UPLC-MSMS analysis (Xevo TQ-S Micro, Waters^TM). XLfit (IDBS, UK) was used to calculate the exponential decay and consequently the rate constant (k) from the ratio of peak area of test compound to internal standard at each timepoint. The rate of intrinsic clearance (CLi) of each test compound was then calculated using the following calculation:1 CLi(mL/min/gliver)=kxVxMicrosomalproteinyield Where V (mL/mg protein) is the incubation volume/mg protein added and microsomal protein yield is taken as 48 mg, 46 mg and 40 mg protein/g liver for mouse, rat and human, respectively. Verapamil (0.5 µM) was used as a positive control to confirm acceptable assay performance.

Structure (SMILES) | GSK3 degradation in presence of MG132, MLN4924 or GSK3 inhibitor 29 (GSK3) | Scaled Microsomal Stability MuClint [1] [ml/min/g liver]
Cn1nc(N2CCC(=O)NC2=O)c2ccc(CN3CCN(Cc4ccc(-c5cn(-c6ccc(-c7cn8nccc(C(=O)Nc9cnccc9N9CCOCC9)c8n7)cc6)nn5)nc4)CC3)cc21 [compound 24] | rescued | 2.4
O=C1CCC(NC(=O)c2ccc(CN3CCN(Cc4ccc(-c5cn(-c6ccc(-c7cn8nccc(C(=O)Nc9cnccc9N9CCOCC9)c8n7)cc6)nn5)nc4)CC3)cn2)C(=O)N1 (centres unmarked) [compound 22] |  | < 0.53
Cn1nc(N2CCC(=O)NC2=O)c2ccc(CN3CCN(CCCc4cn(-c5ccc(-c6cn7nccc(C(=O)Nc8cnccc8N8CCOCC8)c7n6)cc5)nn4)CC3)cc21 [compound 26] | rescued | 4.0
